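How tested: cells in 96-well plates exposed to compound for 48 hours at five concentrations. GI50 marks 50% less growth. TGI: total growth inhibition.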
Tests used:
Test in all cases: NCI-60 cell line screen, 48 h
HCT-116 colon = tested on: HCT-116 colon
HOP-92 NSCLC = tested on: HOP-92 NSCLC
KM12 colon = tested on: KM12 colon
MCF7 breast = tested on: MCF7 breast
OVCAR-3 ovarian = tested on: OVCAR-3 ovarian
RPMI-8226 leukemia = tested on: RPMI-8226 leukemia
UACC-257 melanoma = tested on: UACC-257 melanoma
CCRF-CEM leukemia = tested on: CCRF-CEM leukemia
HL-60(TB) leukemia = tested on: HL-60(TB) leukemia
MOLT-4 leukemia = tested on: MOLT-4 leukemia
SF-539 CNS = tested on: SF-539 CNS

| SMILES | TGI (HCT-116 colon) [µM] | TGI (HOP-92 NSCLC) [µM] | TGI (KM12 colon) [µM] | TGI (MCF7 breast) [µM] | TGI (OVCAR-3 ovarian) [µM] | TGI (RPMI-8226 leukemia) [µM] | TGI (UACC-257 melanoma) [µM] | TGI (CCRF-CEM leukemia) [µM] | TGI (HL-60(TB) leukemia) [µM] | TGI (MOLT-4 leukemia) [µM] | TGI (SF-539 CNS) [µM] | GI50 (CCRF-CEM leukemia) [µM] | GI50 (HL-60(TB) leukemia) [µM] | GI50 (HOP-92 NSCLC) [µM] | GI50 (MCF7 breast) [µM] | GI50 (MOLT-4 leukemia) [µM] | GI50 (SF-539 CNS) [µM] | GI50 (UACC-257 melanoma) [µM] | GI50 (KM12 colon) [µM] | GI50 (OVCAR-3 ovarian) [µM] |
| --- | --- | --- | --- | --- | --- | --- | --- | --- | --- | --- | --- | --- | --- | --- | --- | --- | --- | --- | --- | --- |
| CN(C)CCCSc1nc2ccccc2[nH]1 | > 100 | > 100 | > 100 | > 100 | > 100 | > 100 | > 100 | – | – | – | – | – | – | – | – | – | – | – | – | – |
| C1=NCCN2CCN(CCN=Cc3ccc(cc3)OCc3cccc(n3)COc3ccc1cc3)CC2 | > 50 | > 50 | > 50 | > 50 | > 50 | > 50 | > 50 | > 50 | > 50 | > 50 | > 50 | – | – | – | – | – | – | – | – | – |
| OC1(c2cccs2)c2cccc(Cl)c2C(O)(c2cccs2)c2c(Cl)cccc21 (configuration not stated) | > 100 | > 100 | > 100 | > 100 | > 100 | > 100 | > 100 | > 100 | > 100 | > 100 | > 100 | – | – | – | – | – | – | – | – | – |
| CCOc1ccc(NC(=O)C(=O)CC(=O)c2sc(NNC(C)=O)nc2C)cc1 | > 100 | > 100 | > 100 | – | – | > 100 | > 100 | > 100 | > 100 | > 100 | > 100 | – | – | – | – | – | – | – | – | – |
| C[C@]12C=CC(=O)C=C1CC[C@@H]1[C@@H]2CC[C@]2(C)OC(=O)CC[C@@H]12 | > 482 | 500 | > 500 | > 500 | > 500 | > 500 | > 500 | > 500 | 476 | > 500 | > 476 | – | – | – | – | – | – | – | – | – |
| CCCCCCCCCCCCCCCCCCOc1ccccc1CC(=O)OCC[N+]1(C)CCCCC1 | – | 3.35 | – | 4.97 | – | – | 7.91 | 4.63 | 4.36 | 3.89 | 3.89 | 1.96 | 1.92 | 1.32 | 2.07 | 1.73 | 1.97 | 2.79 | – | – |
| Cc1ccc(S(=O)(=O)n2cc(-c3cc(C(F)(F)F)ccn3)c3cc(Br)ccc32)cc1 | 53 | 35.3 | > 100 | 26 | 30.7 | > 100 | > 100 | > 100 | > 100 | > 100 | 39.5 | – | – | – | – | – | – | – | – | – |
| O=C(O)c1cc([N+](=O)[O-])cc2c(=O)c3cnccc3[nH]c12 | > 100 | – | > 100 | > 100 | > 100 | > 100 | – | > 100 | > 100 | > 100 | – | – | – | – | – | – | – | – | – | – |
| CCOc1cc(NC(C)=O)ccc1C(=O)NN1C(=O)C(Cl)C1c1ccccc1 (configuration not stated) | 38.9 | 31.7 | 32.9 | 22.9 | 34.2 | 28.7 | 28 | 38.6 | 36.1 | 21.3 | 35.4 | – | – | – | – | – | – | – | – | – |
| O=C([O-])C[n+]1ccccc1 | > 100 | > 100 | > 100 | > 100 | > 100 | > 100 | > 100 | > 100 | > 100 | > 100 | > 100 | – | – | – | – | – | – | – | – | – |
| O=C(Nc1ccc(Cl)cc1)c1cc2cc(N=Nc3ccccc3Cl)ccc2oc1=O | 23.3 | 38.8 | – | – | 75.6 | 30.3 | 68.2 | 5.38 | 10.3 | 10.1 | 31.3 | – | – | – | – | – | – | – | – | – |
| CN1CCOC(c2ccc(Cl)cc2)O1 (configuration not stated) | – | > 100 | > 100 | > 100 | > 100 | – | > 100 | > 100 | – | > 100 | > 100 | – | – | – | – | – | – | – | – | – |
| CCOC(=O)c1cnc2oc3ccc(O)cc3c2c1C | > 100 | > 100 | > 100 | > 100 | > 100 | > 100 | > 100 | > 100 | > 100 | > 100 | > 100 | – | – | – | – | – | – | – | 70.3 | – |
| NN(CC(=O)O)CC(=O)O | > 100 | – | > 100 | > 100 | > 100 | > 100 | > 100 | > 100 | > 100 | > 100 | > 100 | – | – | – | – | – | – | – | – | – |
| CN(CCCCCl)P(=O)(OCc1ccc([N+](=O)[O-])o1)OC[C@H]1O[C@@H](n2cc(F)c(=O)[nH]c2=O)C[C@@H]1O (some centres not stated) | > 43.8 | 20.3 | 28.7 | 4.45 | 19.1 | 38.4 | > 68 | 20.7 | > 23.6 | > 46.1 | 0.217 | – | – | – | – | – | – | – | – | – |
| CCOC(=O)C1=C(C)OC2(O)C=CC(O)=C3C(=O)N(c4ccccc4)C(=O)C312 (configuration not stated) | > 100 | > 100 | > 100 | 79.4 | > 100 | 86.1 | 99.4 | – | > 100 | > 100 | 68.2 | – | – | – | – | – | – | – | – | – |
| COc1cc2c(c(O)c1OC)-c1c(cc(OC)c(OC)c1OC)CC(C)C(C)C2 (configuration not stated) | > 100 | > 100 | > 100 | > 100 | > 100 | > 100 | > 100 | 62.1 | 55.2 | 43.4 | > 100 | – | – | – | – | – | – | – | – | – |
| Cn1c2ccccc2n2c(N=O)c(-c3ccccc3)nc12 | > 100 | > 100 | 69.8 | > 100 | > 100 | > 100 | > 100 | > 100 | > 100 | > 100 | – | – | – | – | – | – | – | – | – | – |
| C=C1c2ccccc2C(=O)c2c1c1c(C(=O)OC)c(O)ccc1n2Cc1ccccc1 | 1.43 | 0.613 | 1.7 | 0.763 | 0.392 | 0.53 | 5.98 | 0.74 | 0.857 | 0.971 | 0.657 | – | – | – | – | – | – | – | – | – |
| COCCOC(=O)c1c(C)n([O-])c2cc(Cl)c(Cl)cc2[n+]1=O | – | 25.3 | 25.7 | > 100 | 34.5 | 18.8 | > 100 | 64.7 | 32 | 62.5 | 51.1 | – | – | – | – | – | – | – | – | – |
| CN1CCc2[nH]c3ccccc3c2C1 | > 100 | > 100 | > 100 | > 100 | > 100 | > 100 | > 100 | > 100 | > 100 | > 100 | > 100 | – | – | – | – | – | – | – | – | – |
| COc1ccc2[nH]cc(CCNC(=O)[C@H](Cc3ccccc3)NC(=O)[C@@H](NCC(F)(F)F)C(C)C)c2c1 | 32 | 28.4 | 49.7 | 36.5 | 31.1 | 23.8 | 37.8 | 7.89 | 46.2 | 69.5 | 34.3 | – | – | – | – | – | – | – | – | – |
| Nc1ncnc2nc[nH]c12 | > 250 | > 250 | > 158 | > 162 | > 250 | > 250 | > 250 | > 250 | 228 | 159 | > 250 | 32.4 | – | – | – | 15.8 | – | – | – | 113 |

Source: PubChem BioAssay (NCI)
